Measurements reported in US8940739B2, “Compound of a reverse-turn mimetic and a production method and use therefor” (JW Pharmaceutical Corporation, priority 2010, dated 2015).

Experiments:
[1] = target: cDNA-expressed human hepatic CYP3A4 (Homo sapiens (Human), UniProt P08684); assay: Measurement of CYP (IC50 of P450 CYP3A4), BFC substrate; assay type: in vitro ADME; conditions: 20 minutes
Method: The compounds of the present invention had lower P450 CYP3A4 inhibitory activity (higher IC50). Lower CYP3A4 inhibitory activity means that the compounds of the present invention cause fewer side-effects from the pharmacological point of view.
This assay was performed in a 200 l volume in 96-well microtiter plates using cDNA-expressed human hepatic CYP3A4 (supersome, BD Gentest™ #456202). As a substrate for CYP3A4, 7-benzyloxy-4-trifluoromethyl-coumarin (BFC) was used. The compounds of Examples 1 to 5 and the substrate BFC were dissolved in 100% acetonitrile. The final volume of acetonitrile of the incubation mixture was less than 1% (volume/volume). A potassium phosphate buffer (pH 7.4, final concentration 0.1M), MgCl2 (final concentration 8.3 mM), EDTA (final concentration 1.67 mM), an inventive compound stock solution, CYP3A4 supersome, and NADPH (final concentration 0.25 mM) were added to each well. The reaction was initiated by adding the substrate (BFC, final concentration 30 µM) at 37. The incubation was performed for 20 minutes and then the reaction was terminated by the addition of 75 μl of acetonitrile: 0.5 M tris-base=4:1 (volume/volume).
Then, a fluorescent signal was measured using a fluorometer. A BFC metabolite, 7-hydroxy-4-trifluoromethyl-coumarin, was measured using an excitation wavelength of 409 nm and an emission wavelength of 530 nm.

[2] = test system: MV-4-11 (human, Acute Myeloid Leukemia cell line) cells; assay: Cell growth inhibition assay, GI50 of MV-4-11; assay type: cell-based; conditions: Homo sapiens, MV4-11, 72 h, MV-4-11 cells
Summary of the method: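 MV-4-11 AML cells (5×10^4/well, IMDM with 10% FBS) treated in duplicate with serially diluted compounds for 72 hours at 37 °C. Viability read as absorbance at 490 nm after CellTiter 96 Aqueous One (MTS) addition; GI50 calculated from the concentration-response.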

Chain of cDNA-expressed human hepatic CYP3A4 (P08684 whole entry): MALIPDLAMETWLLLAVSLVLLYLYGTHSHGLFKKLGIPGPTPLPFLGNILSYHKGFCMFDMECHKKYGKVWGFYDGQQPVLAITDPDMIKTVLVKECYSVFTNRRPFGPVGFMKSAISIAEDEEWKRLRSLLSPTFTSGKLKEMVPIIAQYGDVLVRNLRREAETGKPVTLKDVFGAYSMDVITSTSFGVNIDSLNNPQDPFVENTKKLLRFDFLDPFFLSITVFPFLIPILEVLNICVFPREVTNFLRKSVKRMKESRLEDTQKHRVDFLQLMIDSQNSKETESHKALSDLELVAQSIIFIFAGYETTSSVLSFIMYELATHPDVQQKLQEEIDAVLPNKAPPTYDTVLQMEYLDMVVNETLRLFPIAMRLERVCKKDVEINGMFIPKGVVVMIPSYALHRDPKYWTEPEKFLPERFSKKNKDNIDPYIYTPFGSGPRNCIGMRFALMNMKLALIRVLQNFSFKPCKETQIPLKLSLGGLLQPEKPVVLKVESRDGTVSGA

| IC50 [1] [nM] | GI50 [2] [nM] | Compound |
| --- | --- | --- |
| 6950 | 1.3 | C=CCN1CC(=O)N2C(Cc3ccc(O)cc3)C(=O)N(Cc3cccc4c(C(=O)Nc5ccc(N6CCC(O)CC6)nc5)cn(C)c34)CC2N1C(=O)NCc1ccccc1 (stereo not drawn) [Compound G-37] |
| > 25000 | 1.3 | C=CCN1CC(=O)N2C(Cc3ccc(O)cc3)C(=O)N(Cc3cccc4c(C(=O)Nc5ccc(N6CCN(C(C)=O)CC6)nc5)cn(C)c34)CC2N1C(=O)NCc1ccccc1 (stereo not drawn) [Compound G-53] |
| 6410 | 1.5 | C=CCN1CC(=O)N2[C@@H](Cc3ccc(O)cc3)C(=O)N(Cc3cccc4c(-c5cnc(N(C)C)nc5)cn(C)c34)C[C@@H]2N1C(=O)NCc1ccccc1 [Compound H-7] |
| 7100 | 13 | C=CCN1CC(=O)N2C(Cc3ccc(O)cc3)C(=O)N(Cc3cccc4c(C(=O)Nc5ccc(NC6CC(C)(C)N(C)C(C)(C)C6)nc5)cn(C)c34)CC2N1C(=O)NCc1ccccc1 (stereo not drawn) [Compound G-52] |
| 7600 | 1.3 | C=CCN1CC(=O)N2C(CN(Cc3cccc4c(C(=O)Nc5ccc(N6CCN(C)CC6)nc5)cn(C)c34)C(=O)[C@@H]2Cc2ccc(O)cc2)N1C(=O)NCc1ccccc1 (stereo partly drawn) [Compound G-41] |
| 2630 | 1.7 | C=CCN1CC(=O)N2C(CN(Cc3cccc4c(C(=O)Nc5ccc6c(c5)OCCO6)cn(C)c34)C(=O)[C@@H]2Cc2ccc(O)cc2)N1C(=O)NCc1ccccc1 (stereo partly drawn) [Compound G-70] |
| 3850 | 15 | C=CCN1CC(=O)N2[C@@H](Cc3ccc(O)cc3)C(=O)N(Cc3cccc4c(-c5ccc(C(=O)OC)cc5)cn(C)c34)C[C@@H]2N1C(=O)NCc1ccccc1 [Compound H-1] |
| 6940 | 1.3 | C=CCN1CC(=O)N2C(Cc3ccc(O)cc3)C(=O)N(Cc3cccc4c(C(=O)Nc5ccc(N6CCN(C7CC7)CC6)nc5)cn(C)c34)CC2N1C(=O)NCc1ccccc1 (stereo not drawn) [Compound G-49] |
| 7640 | 1.3 | C=CCN1CC(=O)N2[C@@H](Cc3ccc(O)cc3)C(=O)N(Cc3cccc4c(C(=O)Nc5ccc(N6CC7CCN(C)C7C6)nc5)cn(C)c34)C[C@@H]2N1C(=O)NCc1ccccc1 (stereo partly drawn) [Compound G-64] |

Further lines, the molecule ahead of its results:

| Compound | IC50 [1] [nM] | GI50 [2] [nM] |
| --- | --- | --- |
| C=CCN1CC(=O)N2[C@@H](Cc3ccc(O)cc3)C(=O)N(Cc3cccc4c(-c5ccc(C(=O)N6CCN(C)CC6)nc5)cn(C)c34)C[C@@H]2N1C(=O)NCc1ccccc1 [Compound D-91] | 6510 | 1.3 |
| C=CCN1CC(=O)N2[C@@H](Cc3ccc(O)cc3)C(=O)N(Cc3cccc4c(C(=O)N(C)CCN5CCOCC5)cn(C)c34)C[C@@H]2N1C(=O)NCc1ccccc1 [Compound F-26] | 2860 | 19.8 |
| C=CCN1CC(=O)N2[C@@H](Cc3ccc(O)cc3)C(=O)N(Cc3cccc4c(-c5ccc(C(=O)N6CCN(S(C)(=O)=O)CC6)nc5)cn(C)c34)C[C@@H]2N1C(=O)NCc1ccccc1 [Compound D-90] | 6960 | 4.6 |
| C=CCN1CC(=O)N2[C@@H](Cc3ccc(O)cc3)C(=O)N(Cc3cccc4c(C(=O)N5CCN6CCCC6C5)cn(C)c34)C[C@@H]2N1C(=O)NCc1ccccc1 (stereo partly drawn) [Compound E-43] | 6600 | 15.1 |
| C=CCN1CC(=O)N2[C@@H](Cc3ccc(O)cc3)C(=O)N(Cc3cccc4c(-c5ccc(NC(=O)NC6CCN(C)CC6)nc5)cn(C)c34)C[C@@H]2N1C(=O)NCc1ccccc1 [Compound D-98] | 2920 | 23 |
| C=CCN1CC(=O)N2[C@@H](Cc3ccc(O)cc3)C(=O)N(Cc3cccc4c(C(=O)N5CCN6CCN(CC(C)C)CC6C5)cn(C)c34)C[C@@H]2N1C(=O)NCc1ccccc1 (stereo partly drawn) [Compound E-45] | 3980 | 1.8 |
| C=CCN1CC(=O)N2[C@@H](Cc3ccc(O)cc3)C(=O)N(Cc3cccc4c(-c5ccc(NC(=O)c6ccc(CN(CC)CC)cc6)cc5)cn(C)c34)C[C@@H]2N1C(=O)NCc1ccccc1 [Compound D-55] | 2260 | 5.8 |
| C=CCN1CC(=O)N2[C@@H](Cc3ccc(O)cc3)C(=O)N(Cc3cccc4c(C(=O)N(C)CC(=O)N5CCN(C)CC5)cn(C)c34)C[C@@H]2N1C(=O)NCc1ccccc1 [Compound F-32] | 5040 | – |
